From article PMC9599351 (2022)

Tested on: RIV aptamer (DNA, aptamer) TAGGGAAGAGAAGGACATATGATGACTCACAACTGGACGAACGTACTTATCCCCCCCAATCACTAGTGAATT
Assay: square-wave voltammetry aptasensor
Settings: K+ 0.01 M (KCl); [Fe(CN)6]3−/4−; concentration tested not stated

SMILES | binding
N=C(N)NCCC[C@H](N)C(=O)O | weak
NCC(=O)O | no
OC[C@H]1OC(O)[C@H](O)[C@@H](O)[C@@H]1O (some centres unmarked) | no

Continued, values first:

binding | SMILES
weak | O=C(O)[C@@H]1CCCN1
weak | N[C@@H](CS)C(=O)O
